Source: US20060269482A1 (priority 2005, published 2006)
pIC50: −log10 of the molar value.

Key:
[1] = tested on: Rb phosphorylation in MTLn3 tumors; assay: Rb phosphorylation in rat MTLn3 tumor xenografts after a single oral dose; type: in vivo; settings: single oral dose 80 mg/kg, Western blot
Description: The dose selected was 80 mg/kg, determined to be an efficacious dose in this animal model. Tumor growth inhibition in the MTLn3 xenograft model after 2 to 3 weeks of oral dosing at 80 mg/kg once weekly averaged 90% with 2/10 complete regressions. COMPOUND A was dosed on day 10 post implantation of cells, at which time the tumors were 100-200 mm^3 in size. In this pharmacokinetic/pharmacodynamic experiment, plasma and tumors were collected at 1, 2, 6, 24 and 72 hours post dosing of a single oral dose of COMPOUND A. Tumors were removed and immediately snap frozen in liquid nitrogen and stored at −80° C. until drug concentration analysis. […] Concentrations of COMPOUND A in plasma and tumors were determined in the same three animals per time point. […] Peripheral blood mononuclear cells (PBMCs) were isolated, stimulated ex vivo with mitogen and analyzed by Western blot as described below.
In a second pharmacodynamic study, plasma concentrations of COMPOUND A were similarly analyzed as described above, and Rb phosphorylation in both PBMCs and tumor xenografts treated with a single oral dose of COMPOUND A was examined.
PBMCs were collected by transferring the cells, including attached cells and those in suspension, into 50 ml tubes. […] For Western blotting, total Rb was detected using antibody from Pharmingen (BD Bioscience, San Diego, Calif.) at a dilution of 1:2000. […]

MTLn3 xenograft = assay: Tumor growth inhibition in the MTLn3 xenograft model; type: in vivo, rat; settings: 2 to 3 weeks oral dosing at 80 mg/kg once weekly
Description: Female Fischer rats obtained from Charles River Laboratories were used when they were ˜13-15 weeks old and weighed ˜150 grams. All animals were examined prior to the initiation of studies to ensure that they were healthy and acclimated to the laboratory environment. Autoclaved water and irradiated food were provided ad libitum, and the animals were maintained in a 12 hour light and dark cycle. MTLn3 cells were grown in RPMI 1640 supplemented with 10% heat-inactivated Fetal Bovine Serum (HI-FBS; GIBCO/Invitrogen, Carlsbad, Calif.) and 2 mM L-glutamine (GIBCO/Invitrogen) and maintained at 37° C. at 5% CO2. The MTLn3 cells were obtained from Hoffmann-La Roche Inc., Nutley, N.J. Approximately 1×10^6 cells/0.2mls/rat in PBS (Phosphate Buffered Saline) Phenol-red free, Ca^+2 and Mg^+2-free were implanted subcutaneously in the right mammary fat pad. The dose selected was 80 mg/kg, determined to be an efficacious dose in this animal model. Tumor growth inhibition in the MTLn3 xenograft model after 2 to 3 weeks of oral dosing at 80 mg/kg once weekly averaged 90% with 2/10 complete regressions. […] Concentrations of COMPOUND A in plasma and tumors were determined in the same three animals per time point. […] Peripheral blood mononuclear cells (PBMCs) were isolated, stimulated ex vivo with mitogen and analyzed by Western blot as described below.

HCT116 cells = assay: 5-day proliferation assay, cell growth inhibition; type: cell-based; settings: Homo sapiens, HCT-116, 120 h; HCT116, 5-day proliferation assay

pIC50 (HCT116 cells): 7.00 | IC90 (HCT116 cells): 200 nM
Compound: COc1ccc(F)c(F)c1C(=O)c1cnc(NC2CCN(S(C)(=O)=O)CC2)nc1N [COMPOUND A, [4-amino-2-(1-methanesulfonylpiperidin-4-ylamino)pyrimidin-5-yl]-(2,3-difluoro-6-methoxyphenyl)methanone]
Rb phosphorylation (serine 807/811) in tumor xenografts [1]: reduction in phosphorylation of Rb | Tumor growth inhibition (MTLn3 xenograft): 90% | complete regressions (MTLn3 xenograft): 2/10
